# Measurements published in patent US20260055061A1, “HALOPHTHALIMIDE COMPOUNDS AND METHODS OF USE AGAINST TBI, INFLAMMATORY DISORDER, AUTOIMMUNE DISORDER, NEURODEGENERATIVE DISEASE OR VIRAL INFECTION” (The United States of America, as represented by the …, priority 2022, published 2026).
# Assays:
# CCI-induced TBI mice [1] = test: CCI mouse model of TBI: brain lesion and lateral ventricle size (Giemsa); format: in vivo
# Protocol: (§1) In vivo model of TBI: Mice were anesthetized with 2.5% tribromoethanol (Avertin: 250 mg/kg; Sigma, St. Louis, MO, USA) and placed in a stereotaxic frame (Kopf Instruments, Tujunga, CA, USA). A 4 mm craniotomy was performed using sterile procedures; the craniotomy point was selected midway between the lambda and bregma sutures and laterally midway between the central suture and the temporalis muscle. The skull fragment was then carefully removed without disruption of the underlying dura. Prior to injury induction, the tip of the impactor was angled and kept perpendicular to the exposed cortical surface. The mouse CCI instrument consisted of an electromagnetic impactor, Impact One (Leica Biosystems Inc., Buffalo Grove, IL, USA) that allows independent alteration of injury severity by controlling contact velocity and the level of cortical deformation. In these experiments, the contact velocity was set at 5.0 m/sec, the dwell time was set at 0.2 s and the deformation depth was set at 2 mm to produce a moderate TBI. The injury site was allowed to dry prior to suturing the wound. During surgery and recovery, the body temperature of the animals was maintained at 36-37° C. by using a heating pad. […] Mice were randomized following CCI to treatment with either of two doses of TFBP (16.25 mg/kg and 32.5 mg/kg, i.p.) or saline, and were dosed at 1 and 24 hr after the injury.
# Tissue processing: Two weeks after injury, mice were deeply anesthetized with isoflurane and perfused transcardially with 30 ml phosphate buffered saline (PBS). After removal, the brain was post-fixed with 4% PFA overnight then transferred to a 30% sucrose solution in PBS. […]
# Quantification of brain lesion and lateral ventricle size in TBI animals: One set of brain sections 2-weeks post-CCI were mounted on slides. […] Brain image regions were quantified using ImageJ 1.52q software (National Institutes of Health, Bethesda, MD). […] There were 9 brain sections from each mouse counted by blinded observers, with regions starting from bregma at 0.86 to −1.46 mm.
# In Vivo Model of TBI: TBI studies were conducted in 8-week-old male C57/BL6 mice (25-30 g; n=20), Jackson Laboratory, Bar Harbor, Maine USA. Mice were randomly assigned to four groups prior surgery, CMC+Sham, CMC+TBI, compound 30 (Low dose (LD), 14.78 mg/kg, prepared in 1% CMC in PBS)+TBI, compound 30 (High dose (HD), 29.57 mg/kg)+TBI, and evaluated the effects of compound 30 on TBI. Mice were assessed for gait function and motor coordination, balance function. Animals were subsequently evaluated for cellular changes using histological and immunohistochemistry staining. […]
# IFN-γ = test: LPS model of inflammation in rats: IFN-γ in plasma and cortex; format: in vivo, rat; conditions: LPS-challenged rats; for IFN-γ in plasma (in words): low and high dose
# CCI-induced TBI mice [2] = test: Controlled cortical impact (CCI) mouse model of TBI: beam walking test; format: in vivo; conditions: for beam walking test average transit time / beam walking test immobility time: 1 week after CCI
# Protocol: as §1
# Behavioral assessment for motor functions and coordination: Behavioral tests were performed 1 week and 2 weeks after injury, to assess changes in motor functions and coordination. All tests were performed during the animals' light phase; cages were transported to testing rooms at least 30 min prior to testing.
# Beam Walking Test (BWT): A BWT was used to assess CCI-induced deficits in fine motor coordination. Mice have a preference for a darkened enclosed environment, as compared to an open illuminated one. Each animal was placed in darkened goal box for a 2 min habituation and then the trial began from the other (light) end of the beam. The beam was constructed with the following dimensions: 1.2 cm (width)×91 cm (length). The time taken for each animal to traverse the beam to reach the dark goal box and the immobility time spent between the moment when they were initially placed in the beam and when they started walking were documented. Five trials were recorded for each animal before CCI and at 1 and 2 weeks after CCI. The mean times to traverse the beam and the immobility times were calculated, and a plot was generated to evaluate treatment effects; these times were then used for statistical analysis.
# In Vivo Model of TBI: TBI studies were conducted in 8-week-old male C57/BL6 mice (25-30 g; n=20), Jackson Laboratory, Bar Harbor, Maine USA. Mice were randomly assigned to four groups prior surgery, CMC+Sham, CMC+TBI, compound 30 (Low dose (LD), 14.78 mg/kg, prepared in 1% CMC in PBS)+TBI, compound 30 (High dose (HD), 29.57 mg/kg)+TBI, and evaluated the effects of compound 30 on TBI. Mice were assessed for gait function and motor coordination, balance function. Animals were subsequently evaluated for cellular changes using histological and immunohistochemistry staining.
# Mice were anesthetized with 2.5% tribromoethanol (Avertin: 250 mg/kg; Sigma, St. Louis, MO, USA)) and placed in a mouse stereotaxic frame (Kopf Instruments, Tujunga, CA, USA) and fixed by ear bars and incisor bar. Under sterile procedures, the skin was retracted and a 5-mm square craniectomy was executed over right motor cortex at the posterior corner between the bregma and sagittal sutures. The skull was carefully removed by a drill to avoid damaging the dura underneath. The process of craniectomy proceeded without having the temporalis muscle impaired. The CCI device, Impact One (Leica Biosystems Inc., Buffalo Grove, IL, USA), consists of an electromagnetic impactor that allows alteration of injury severity by controlling contact velocity and the depth of cortical deformation independently. […]
Compound,"lateral ventricle size (CCI-induced TBI mice [1]; both doses, 2 weeks after TBI)","loss of cortical tissue (lesion volume) (CCI-induced TBI mice [1]; higher dose 32.5 mg/kg, 2 weeks after TBI)","loss of cortical tissue (lesion volume) (CCI-induced TBI mice [1]; lower dose 16.25 mg/kg, 2 weeks after TBI)",Brain cortex IFN-γ levels (in words) (IFN-γ),IFN-γ in plasma (in words) (IFN-γ),beam walking test average transit time (CCI-induced TBI mice [2]; higher dose 32.5 mg/kg i.p.),beam walking test immobility time (CCI-induced TBI mice [2]; higher dose 32.5 mg/kg i.p.),beam walking test average transit time (CCI-induced TBI mice [2]; lower dose 16.25 mg/kg i.p.),beam walking test immobility time (CCI-induced TBI mice [2]; lower dose 16.25 mg/kg i.p.),"lesion size (CCI-induced TBI mice [1]; low dose 14.78 mg/kg, 2 weeks post-TBI, vs CMC)",beam walking test average time (CCI-induced TBI mice [2]; high dose 29.57 mg/kg),"beam walking test, average time and contralateral foot falls (trend) (CCI-induced TBI mice [2]; treated groups 14.78, 29.57 mg/kg)"
"CC1(C)[C@@H]2CC[C@@]1(C)[C@@H](N1C(=O)c3c(F)c(F)c(F)c(F)c3C1=O)C2 [Compound 14, 4,5,6,7-Tetrafluoro-2-((1R,2S,4R)-1,7,7-trimethylbicyclo[2.2.1]heptan-2-yl) isoindoline-1,3-dione]",did not reach statistical significance,failed to reach statistical significance,reduce loss of cortical tissue,not impacted,proved able to reduce this rise,prevented the CCI-induced behavioral impairment,prevented the CCI-induced behavioral impairment,but not the average transit time deficit,effective in mitigating the immobility measure,–,–,–
"O=C1c2c(F)c(F)c(F)c(F)c2C(=O)N1C1CC2CCC1C2 (stereo not drawn) [Compound 16, 2-Endo-(bicyclo[2.2.1]heptan-2-yl)-4,5,6,7-tetrafluoroisoindoline-1,3-dione]",–,–,–,not impacted,proved able to reduce this rise,–,–,–,–,–,–,–
"Nc1ccc(F)c2c1C(=S)N(C1CCC(=S)NC1=O)C2=O (centres unmarked) [Compound 30, 4-amino-7-fluoro-2-(2-oxo-6-thioxopiperidin-3-yl)-3-thioxoisoindolin-1-one]",–,–,–,–,–,–,–,–,–,significant reduction of the lesion size,reached significant different,clear reducing trends
